24 compounds from US11267823B2, “Substituted 1,2,3,3a,4,5,7,9,13,13a-decahydropyrido[1′,2′:4,5]pyrazino[1,2-a]pyrrolo[1,2-c]pyrimidines having HIV integrase inhibitory activity” (Shionogi & Co., Ltd., priority 2005, dated 2022) can be followed below.

Where a name gives a salt, the structure may show the parent alone.

This test has as its system VSV-g pseudotyped HIV vector that expresses luciferase (PHIV). The test is described as follows: microbe, parasite or virus in culture. The test is classed as cell-based. The conditions noted are these: Human immunodeficiency virus 1, HEK-293T, 48 h, read-out: PHIV IC50.
As a reminder, the IC50 is the concentration at which inhibition is half-maximal. `CC(C)[C@@H]1CO[C@H]2Cn3cc(C(=O)NCc4ccc(F)cc4F)c(=O)c(O)c3C(=O)N21` [Example Z-25, (3R,11aS)—N-[(2,4-Difluorophenyl)methyl]-6-hydroxy-3-(1-methylethyl)-5,7-dioxo-2,3,5,7,11,11a-hexahydro[1,3]oxazolo[3,2-a]pyrido[1,2-d]pyrazine-8-carboxamide]: the IC50 is under 10 nM. Then `C[C@H]1CCN(C2CCC2)[C@@H]2Cn3cc(C(=O)NCc4ccc(F)cc4F)c(=O)c(O)c3C(=O)N12` [Example Z-59, (4S,12aS)-1-Cyclobutyl-N-[(2,4-difluorophenyl)methyl]-7-hydroxy-4-methyl-6,8-dioxo-1,2,3,4,6,8,12,12a-octahydropyrido[1′,2′:4,5]pyrazino[1,2-a]pyrimidine-9-carboxamide], with under 10 nM; and `O=C(NCc1ccc(F)cc1F)c1cn2c(c(O)c1=O)C(=O)N1CC[C@@H]3CCCN3[C@@H]1C2` [Example Z-3, (3aS,13aS)—N-[(2,4-Difluorophenyl)methyl]-8-hydroxy-7,9-dioxo-1,2,3,3a,4,5,7,9,13,13a-decahydropyrido-[1′,2′:4,5]pyrazino[1,2-a]pyrrolo[1,2-c]pyrimidine-10-carboxamide], with under 10 nM; and `CC(C)CCN1CC[C@H](C)N2C(=O)c3c(O)c(=O)c(C(=O)NCc4ccc(F)cc4F)cn3C[C@@H]12` [Example Z-45, (4S,12aS)—N-[(2,4-Difluorophenyl)methyl]-7-hydroxy-4-methyl-1-(3-methylbutyl)-6,8-dioxo-1,2,3,4,6,8,12,12a-octahydropyrido[1′,2′:4,5]pyrazino[1,2-a]pyrimidine-9-carboxamide], with under 10 nM. `C[C@@H]1[C@H](c2ccccc2)OC2Cn3cc(C(=O)NCc4ccc(F)cc4F)c(=O)c(O)c3C(=O)N21` (stereo partly drawn) [Example Z-15, (2S,3R)—N-[(2,4-Difluorophenyl)methyl]-6-hydroxy-3-methyl-5,7-dioxo-2-phenyl-2,3,5,7,11,11a-hexahydro[1,3]oxazolo[3,2-a]pyrido[1,2-d]pyrazine-8-carboxamide]: the IC50 is under 10 nM. For `O=C(NCc1ccc(F)cc1F)c1cn2c(c(O)c1=O)C(=O)N1C[C@@H]3CCCCN3[C@@H]1C2` [Example Z-41, (5aS,14aS)—N-[(2,4-Difluorophenyl)methyl]-11-hydroxy-10,12-dioxo-1,2,3,4,5a,6,10,12,14,14a-decahydropyrido[1,2-a]pyrido[1′,2′:4,5]imidazo[1,2-d]pyrazine-9-carboxamide] the value was under 10 nM. For `O=C(NCc1ccc(F)cc1F)c1cn2c(c(O)c1=O)C(=O)N1C[C@H]3CCCN3[C@@H]1C2` [Example Z-4, (4aS,13aR)—N-[(2,4-Difluorophenyl)methyl]-10-hydroxy-9,11-dioxo-2,3,4a,5,9,11,13,13a-octahydro-1H-pyrido[1,2-a]pyrrolo[1′,2′:3,4]imidazo[1,2-d]pyrazine-8-carboxamide sodium salt], the IC50 was under 10 nM. Then `C[C@H]1CCN(CC2CC2)[C@@H]2Cn3cc(C(=O)NCc4ccc(F)cc4F)c(=O)c(O)c3C(=O)N12` [Example Z-32, (4S,12aS)-1-(Cyclopropylmethyl)-N-[(2,4-difluorophenyl)methyl]-7-hydroxy-4-methyl-7-hydroxy-4-methyl-6,8-dioxo-1,2,3,4,6,8,12,12a-octahydropyrido[1′,2′:4,5]pyrazino[1,2-a]pyrimidine-9-carboxamide], with under 10 nM.

Regarding `COCCN1C[C@@H]2CCCC[C@@H]2N2C(=O)c3c(O)c(=O)c(C(=O)NCc4ccc(F)cc4F)cn3C[C@@H]12` (racemic) [Example Z-54, racemic-(4aS,6aS,14aS)—N-[(2,4-Difluorophenyl)methyl]-12-hydroxy-6-[2-(methyloxy)ethyl]11,13-dioxo-1,2,3,4,4a,5,6,6a,7,11,13,14a-dodecahydropyrido[1′,2′:4,5]pyrazino[1,2-a]quinazoline-10-carboxamide], the concentration for half-maximal inhibition (IC50) was under 10 nM.

As for `O=C(NCc1ccc(F)cc1)c1cn2c(c(O)c1=O)C(=O)N1[C@@H](C2)OC[C@@H]2CCCC[C@@H]21` (racemic) [Example Z-36, racemic-(4R,6aR,14aS)—N-[(4-Fluorophenyl)methyl]-12-hydroxy-11,13-d oxo-1,3,4,4a,5,6a,7,11,13,14a-decahydro-2H-pyrido[1′,2′:4,5]pyrazino[1,2-a][3,1]benzoxazine-10-carboxamide], the IC50 is under 10 nM.

Consider `CC(C)[C@H]1CO[C@@H]2Cn3cc(C(=O)NCc4ccc(F)cc4F)c(=O)c(O)c3C(=O)N12` [Example Z-21, (3S,11aR)—N-[(2,4-Difluorophenyl)methyl]-6-hydroxy-3-(1-methylethyl)-5,7-dioxo-2,3,5,7,11,11a-hexahydro[1,3]oxazolo[3,2-a]pyrido[1,2-d]pyrazine-8-carboxamide], for which the IC50 is under 10 nM. Regarding `CC(C)CN1CC[C@H](C)N2C(=O)c3c(O)c(=O)c(C(=O)NCc4ccc(F)cc4F)cn3C[C@@H]12` [Example Z-31, (4S,12aS)—N-[(2,4-Difluorophenyl)methyl]-7-hydroxy-4-methyl-1-(2-methylpropyl)-6,8-dioxo-1,2,3,4,6,8,12,12a-octahydropyrido[1′,2′:4,5]pyrazino[1,2-a]pyrimidine-9-carboxamide], the IC50 is under 10 nM. Then `O=C(NCc1ccc(F)cc1F)c1cn2c(c(O)c1=O)C(=O)N1[C@@H](C2)OC[C@@H]2CCCC[C@@H]21` (racemic) [Example Z-35, racemic-(4aR,6aR,14aS)—N-[(2,4-Difluorophenyl)methyl]-12-hydroxy-11,13-dioxo-1,3,4,4a,5,6a,7,11,13,14a-decahydro-2H-pyrido[1′,2′:4,5]pyrazino[1,2-a][3,1]benzoxazine-10-carboxamide], with under 10 nM. For `O=C(NCc1ccc(F)cc1F)c1cn2c(c(O)c1=O)C(=O)N1C[C@@H]3CCCN3[C@H]1C2` [Example Z-2, (4aR,13aS)—N-[(2,4-Difluorophenyl)methyl]-10-hydroxy-9,11-dioxo-2,3,4a,5,9,11,13,13a-octahydro-1H-pyrido[1,2-a]pyrrolo[1′,2′:3,4]imidazo[1,2-d]pyrazine-8-carboxamide] the value was under 10 nM; for `O=C(NCc1ccc(F)cc1F)c1cn2c(c(O)c1=O)C(=O)N1[C@@H](c3ccccc3)CO[C@@H]1C2` [Example Z-13, (3S,11aR)—N-[(2,4-Difluorophenyl)methyl]-6-hydroxy-5,7-dioxo-3-phenyl-2,3,5,7,11,11a-hexahydro[1,3]oxazolo[3,2-a]pyrido[1,2-d]pyrazine-8-carboxamide], 10 to 100 nM.

For the compound `O=C(NCc1ccc(F)cc1F)c1cn2c(c(O)c1=O)C(=O)N1C(C2)O[C@@H]2Cc3ccccc3[C@@H]21` (stereo partly drawn) [Example Z-22, (5aR,14aS)—N-[(2,4-Difluorophenyl)methyl]-12-hydroxy-11,13-dioxo-5a,6a,7,11,13,14a-hexahydro-5H-indeno[1′,2′:4,5][1,3]oxazolo[3,2-a]pyrido[1,2-d]pyrazine-10-carboxamide], the IC50 is under 10 nM.

As to `O=C(NCc1ccc(F)cc1F)c1cn2c(c(O)c1=O)C(=O)N1[C@H](Cc3ccccc3)CO[C@H]1C2` [Example Z-16, (3R,11aS)—N-[(2,4-Difluorophenyl)methyl]-6-hydroxy-5,7-dioxo-3-(phenylmethyl)-2,3,5,7,11,11a-hexahydro[1,3]oxazolo[3,2-a]pyrido[1,2-d]pyrazine-8-carboxamide], the IC50 was under 10 nM. For `O=C(NCc1ccc(F)cc1F)c1cn2c(c(O)c1=O)C(=O)N1[C@@H](C2)OC[C@@H]2CCC[C@@H]21` (racemic) [Example Z-52, racemic-(3aR,5aR,13aS)—N-[(2,4-Difluorophenyl)methyl]-11-hydroxy-10,12-dioxo-1,2,3,3a,4,5a,6,10,12,13a-decahydrocyclopenta[d]pyrido[1′,2′:4,5]pyrazino[2,1-b][1,3]oxazine-9-carboxamide] the value was under 10 nM.

For the compound `O=C(NCc1ccc(F)cc1F)c1cn2c(c(O)c1=O)C(=O)N1[C@@H](CC3CCCCC3)CO[C@@H]1C2` [Example Z-20], the IC50 was 10 to 100 nM. Take `C[C@H]1CO[C@@H]2Cn3cc(C(=O)NCc4ccc(F)cc4F)c(=O)c(O)c3C(=O)N12` [Example Z-9, (3S,11aR)—N-[(2,4-Difluorophenyl)methyl]-6-hydroxy-3-methyl-5,7-dioxo-2,3,5,7,11,11a-hexahydro[1,3]oxazolo[3,2-a]pyrido[1,2-d]pyrazine-8-carboxamide sodium salt]: the IC50 was under 10 nM. Then `CC(C)(C)[C@H]1CO[C@@H]2Cn3cc(C(=O)NCc4ccc(F)cc4)c(=O)c(O)c3C(=O)N21` [Example Z-12, (3S,11aR)-3-(1,1-Dimethylethyl)-N-[(4-fluorophenyl)methyl]-6-hydroxy-5,7-dioxo-2,3,5,7,11,11a-hexahydro[1,3]oxazolo[3,2-a]pyrido[1,2-d]pyrazine-8-carboxamide], with under 10 nM; and `CC(C)CN1C[C@@H]2CCCC[C@@H]2N2C(=O)c3c(O)c(=O)c(C(=O)NCc4ccc(F)cc4F)cn3C[C@@H]12` (racemic) [Example Z-38, Sodium racemic-(4aS,6aS,14aS)-10-({[(2,4-difluorophenyl)methyl]amino}carbonyl)-6-(2-methylpropyl)-11,13-dioxo-1,2,3,4,4a,5,6,6a,7,11,13,14a-dodecahydropyrido[1′,2′:4,5]pyrazino[1,2-a]quinazolin-12-olate], with 10 to 100 nM; and `C[C@H]1CCN(Cc2nccs2)[C@@H]2Cn3cc(C(=O)NCc4ccc(F)cc4F)c(=O)c(O)c3C(=O)N12` [Example Z-34, (4S,12aS)—N-[(2,4-Difluorophenyl)methyl]-7-hydroxy-4-methyl-6,8-dioxo-1-(1,3-thiazol-2-ylmethyl)-1,2,3,4,6,8,12,12a-octahydropyrido[1′,2′:4,5]pyrazino[1,2-a]pyrimidine-9-carboxamide], with under 10 nM. As to `CC(C)CN1C[C@@H]2CCC[C@@H]2N2C(=O)c3c(O)c(=O)c(C(=O)NCc4ccc(F)cc4F)cn3C[C@@H]12` (racemic) [Example Z-49, racemic-(3aS,5aS,13aS)—N-[(2,4-Difluorophenyl)methyl]-11-hydroxy-5-(2-methylpropyl)-10,12-dioxo-2,3,3a,4,5,5a,6,10,12,13a-decahydro-1H-cyclopenta[e]pyrido[1′,2′:4,5]pyrazino[1,2-a]pyrimidine-9-carboxamide], the IC50 was under 10 nM.
